# Assay results reported in US10952992B2, “Methods of treating intraocular pressure with activators of Tie-2” (Aerpio Pharmaceuticals, Inc., priority 2015, dated 2021).
# Several values for one entry are separate records, joined by “and”; a condition that tells them apart may be missing. Equal values may be shown once. Where a name gives a salt, the structure may show the parent alone.
# Assays:
# [1] = Example 2 iris, retina, choroid and cornea tissue concentrations; type: in vivo, male New Zealand White rabbits; conditions: for Retina Conc. OS / Retina Conc. OD: retina homogenate; for Retina Conc. OS / Retina tissue Conc. OS: left eye; for Retina Conc. OS / Retina Conc. OD / Retina tissue Conc. OS / Retina tissue Conc. OD: individual animals; for Retina Conc. OS / Retina Conc. OD / Retina tissue Conc. Avg. / Retina tissue Conc. OS / Retina tissue Conc. OD: intravitreal 2.5 mg/eye (~1.55 mg/kg), Group 4; for Retina Conc. OD / Retina tissue Conc. OD: right eye; for Retina tissue Conc. Avg.: average
# Procedure: (§1) To measure the concentration of Compound 1 in plasma and ocular tissues following topical ocular, subcutaneous, and intravitreal administration, New Zealand White rabbits were administered Compound 1, and plasma and ocular samples were collected at pre-determined time points. Compound 1 formulations were prepared fresh on each day of dosing.
# (§2) Ocular tissue samples from both eyes of each animal were collected and weights were recorded. Plasma and ocular tissue sample concentrations of Compound 1 were determined by LC-MS/MS.
# (§3) Animals were anesthetized for ocular (topical) and intravitreal dosing following the 12IA7 IACUC protocol. Each rabbit received a bolus dose of test formulation either via topical ocular administration 3 times daily on Days 1 and 2 (at 0, 6, and 12 hours), and once on Day 3 (at 0 hours) into both eyes; via intravitreal administration into both eyes once on Day 1 (at 0 hours); or via subcutaneous administration 2 times daily on Days 1 and 2 (at 0 and 8 hours) and once daily on Day 3 (at 0 hours). Doses were given within an approximately 1 hour window each day where applicable.
# (§4) On Day 1, for intravitreal administration, or on Day 3, for topical ocular and subcutaneous administration, at the appropriate ocular tissue collection time points, animals were euthanized and both eyes were enucleated immediately. Following enucleation, each eye was rinsed with phosphate-buffered saline. Ocular tissue samples from both eyes of each animal were collected at predetermined time points and weights were recorded. All the samples were frozen immediately on dry ice, and stored at −60° C. to −80° C. pending bioanalysis.
# (§5) An LC-MS/MS method was developed for the determination of Compound 1 in rabbit aqueous tissues (plasma, aqueous and vitreous humor) and solid ocular tissue samples. A pre-study standard curve was analyzed to determine the specificity, range, and lower limit of quantitation of the method. Plasma and tissue homogenate study samples were extracted and analyzed. All the samples were treated identically to the standards.
# (§6) One eight-point standard curve was used in each analytical batch. To be accepted, each batch must have had at least five of eight standards with accuracy within ±20% of nominal, except at the lower limit of quantification (LLOQ), where ±25% was acceptable.
# [2] = Example 2 aqueous humor concentrations; type: in vivo, male New Zealand White rabbits; conditions: for Average Peak Concentration, Aqueous Humor: solution
# Procedure: as §1, §2, §3, §4, §5, §6
# [3] = Group 1 (topical ocular 1.2 mg/eye), 0.5 hr
# [4] = Group 1 (topical ocular 1.2 mg/eye), 1.0 hr
# [5] = Group 1 (topical ocular 1.2 mg/eye), 2.0 hr
# [6] = Group 1 (topical ocular 1.2 mg/eye), 4.0 hr
# [7] = Group 2 (subcutaneous 5 mg/kg/dose, solution), 0.5 hr
# [8] = Group 2 (subcutaneous 5 mg/kg/dose, solution), 1.0 hr
# [9] = Group 2 (subcutaneous 5 mg/kg/dose, solution), 2.0 hr
# [10] = Group 2 (subcutaneous 5 mg/kg/dose, solution), 4.0 hr, BLOQ = below 0.2 ng/mL
# [11] = Group 4 (intravitreal 2.5 mg/eye, solution), 6.0 hr
# [12] = Group 4 (intravitreal 2.5 mg/eye, solution), 24 hr
# [13] = Group 4 (intravitreal 2.5 mg/eye, solution), 48 hr
structure (smiles),measurement,setting,value
COC(=O)N[C@@H](Cc1ccccc1)C(=O)N[C@@H](Cc1ccc(NS(=O)(=O)O)cc1)c1csc(-c2cccs2)n1 [Compound 1 sodium salt],Retina Conc. OS,[1]; 6.0 hr,41100 ng/mL and 82300 ng/mL
same,Retina Conc. OD,[1]; 6.0 hr,39200 ng/mL and 119000 ng/mL
same,Retina Conc. OS,[1]; 24 hr,28000 ng/mL and 3700 ng/mL
same,Retina Conc. OD,[1]; 24 hr,29200 ng/mL and 35200 ng/mL
same,Retina Conc. OS,[1]; 48 hr,6030 ng/mL and 6530 ng/mL
same,Retina Conc. OD,[1]; 48 hr,6490 ng/mL and 7360 ng/mL
same,Retina Conc. OS,[1]; 72 hr,370 ng/mL and 484 ng/mL
same,Retina Conc. OD,[1]; 72 hr,750 ng/mL and 598 ng/mL
same,Retina tissue Conc. Avg.,[1]; 6.0 hr,774400 ng/g
same,Retina tissue Conc. OS,[1]; 6.0 hr,452100 ng/g and 905300 ng/g
same,Retina tissue Conc. OD,[1]; 6.0 hr,431200 ng/g and 1309000 ng/g
same,Retina tissue Conc. Avg.,[1]; 24 hr,355850 ng/g
same,Retina tissue Conc. OS,[1]; 24 hr,308000 ng/g and 407000 ng/g
same,Retina tissue Conc. OD,[1]; 24 hr,321200 ng/g and 387200 ng/g
same,Retina tissue Conc. Avg.,[1]; 48 hr,72628 ng/g
same,Retina tissue Conc. OS,[1]; 48 hr,66330 ng/g and 71830 ng/g
same,Retina tissue Conc. OD,[1]; 48 hr,71390 ng/g and 80960 ng/g
same,Retina tissue Conc. Avg.,[1]; 72 hr,6056 ng/g
same,Retina tissue Conc. OS,[1]; 72 hr,4070 ng/g and 5324 ng/g
same,Retina tissue Conc. OD,[1]; 72 hr,8250 ng/g and 6578 ng/g
same,"distribution among iris, retina, choroid, cornea (FIG. 13)","[1]; subcutaneous 5 mg/kg/dose, sodium salt",generally higher in the iris and choroid
same,"ocular tissue concentrations, sodium salt solution compared to free acid suspension",[1]; subcutaneous and intravitreal administration,generally higher
same,"distribution among iris, retina, choroid, cornea (FIG. 12)",[1]; topical ocular administration at 0.7 mg/kg/dose,generally higher in the cornea
same,aqueous humor Average Conc.,[2]; [3],45.8 ng/g
same,aqueous humor Conc. OS,[2]; [3],1.78 ng/mL
same,aqueous humor Average Conc.,[2]; [4],15.0 ng/g
same,aqueous humor Conc. OD,[2]; [4],4.03 ng/mL and 3.05 ng/mL
same,aqueous humor Conc. OS,[2]; [4],3.55 ng/mL
same,aqueous humor Average Conc.,[2]; [5],31.6 ng/g
same,aqueous humor Conc. OD,[2]; [5],2.46 ng/mL
same,aqueous humor Conc. OS,[2]; [5],14.5 ng/mL and 15.8 ng/mL
same,aqueous humor Average Conc.,[2]; [6],8.24 ng/g
same,aqueous humor Conc. OD,[2]; [6],5.48 ng/mL and 7.78 ng/mL
same,"Average Peak Concentration, Aqueous Humor",[2]; Group 1: topical ocular 0.70 mg/kg/dose,45.8 ng/g
same,aqueous humor Average Conc.,[2]; [7],26.1 ng/g
same,aqueous humor Conc. OD,[2]; [7],23.5 ng/mL and 18.0 ng/mL
same,aqueous humor Conc. OS,[2]; [7],24.6 ng/mL and 38.2 ng/mL
same,aqueous humor Average Conc.,[2]; [8],3.30 ng/g
same,aqueous humor Conc. OD,[2]; [8],4.51 ng/mL and 3.22 ng/mL
same,aqueous humor Conc. OS,[2]; [8],1.84 ng/mL and 3.63 ng/mL
same,aqueous humor Average Conc.,[2]; [9],0.72 ng/g
same,aqueous humor Conc. OD,[2]; [9],0.581 ng/mL and 0.453 ng/mL
same,aqueous humor Conc. OS,[2]; [9],0.498 ng/mL
same,aqueous humor Conc. OD,[2]; [10],BLOQ
same,aqueous humor Conc. OS,[2]; [10],BLOQ
same,"Average Peak Concentration, Aqueous Humor",[2]; Group 2: subcutaneous 5 mg/kg/dose,26.1 ng/g
same,aqueous humor Average Conc.,[2]; [11],80575 ng/g
same,aqueous humor Conc. OD,[2]; [11],90600 ng/mL and 75300 ng/mL
same,aqueous humor Conc. OS,[2]; [11],77100 ng/mL and 79300 ng/mL
same,aqueous humor Average Conc.,[2]; [12],9000 ng/g
same,aqueous humor Conc. OD,[2]; [12],4700 ng/mL
same,aqueous humor Conc. OS,[2]; [12],5190 ng/mL and 6810 ng/mL
same,aqueous humor Average Conc.,[2]; [13],1963 ng/g
same,aqueous humor Conc. OD,[2]; [13],2040 ng/mL and 2330 ng/mL
same,aqueous humor Conc. OS,[2]; [13],1510 ng/mL and 1970 ng/mL
same,aqueous humor Average Conc.,"[2]; Group 4 (intravitreal 2.5 mg/eye, solution), 72 hr",34.5 ng/g
same,"Average Peak Concentration, Aqueous Humor",[2]; Group 4: intravitreal 1.55 mg/kg/dose,80575 ng/g
same,aqueous humor concentrations vs free acid (FIG. 8),"[2]; intravitreal administration, up to forty-eight hours post-administration",higher aqueous humor concentrations
same,aqueous humor concentrations vs free acid (FIG. 7),"[2]; subcutaneous administration, early time points",increased aqueous humor concentrations as compared to the free acid
same,aqueous humor concentrations (FIG. 6),"[2]; topical ocular administration, over four hours",below 50 ng/g
